Experimental data: PubChem BioAssay (NCI)
Several values for one entry are separate records, joined by “and”; a condition that tells them apart may be missing. Equal values may be shown once.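 A five-concentration, 48-hour dose response in 96-well plates underlies each endpoint, interpolated linearly between surrounding concentrations. Here, GI50 denotes the concentration required for 50% inhibition of growth. Definition used: TGI = concentration required for complete inhibition of growth.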

How the values were obtained:
Assay in all cases: NCI anticancer screen, dose series, 48 h
[1] = system: HOP-62 NSCLC
[2] = system: MDA-MB-435
[3] = system: NCI-H226 lung
[4] = system: RPMI-8226 leukemia
[5] = system: RXF 393 renal
[6] = system: SF-268 CNS
[7] = system: SK-MEL-28 melanoma
[8] = system: SK-MEL-5 melanoma
[9] = system: TK-10 renal
[10] = system: UACC-257 melanoma

| SMILES | TGI [1] | TGI [2] | TGI [3] | TGI [4] [µM] | TGI [5] | TGI [6] | TGI [7] | TGI [8] | TGI [9] | TGI [10] | GI50 [1] | GI50 [2] | GI50 [3] | GI50 [4] [µM] | GI50 [5] | GI50 [6] | GI50 [7] | GI50 [8] | GI50 [9] | GI50 [10] |
| --- | --- | --- | --- | --- | --- | --- | --- | --- | --- | --- | --- | --- | --- | --- | --- | --- | --- | --- | --- | --- |
| CCC(c1ccccc1)c1cc(C(C)(C)C)cc(C(C)(C)C)c1O (stereo not drawn) | 29.7 µM | 32 µM | 35.1 µM | 28.5 | 34.2 µM | 28.9 µM | 32.5 µM | 32.7 µM | 28.8 µM | 28.5 µM | – | – | – | – | – | – | – | – | – | – |
| O=C1/C(=C/c2ccc(C(F)(F)F)cc2)COc2ccc(O)c(O)c21 | 3.41 µM | 2.68 µM | 3.09 µM | 0.607 | 3.05 µM | 3.83 µM | 3.15 µM | 3.21 µM | 3.03 µM | 3.46 µM | 1.65 µM | 1.26 µM | 1.59 µM | 0.238 | 1.6 µM | 1.67 µM | 1.72 µM | 1.73 µM | 1.64 µM | 1.58 µM |
| COc1ccc(-c2c(-c3ccc(C#N)c(F)c3)nc(N3CCC(N)CC3)n(C)c2=O)cc1F | > 100 µM | 28.9 µM | > 100 µM | 49.1 | 23.6 µM | 87 µM | 29.8 µM | 28.4 µM | 32.4 µM | 29.2 µM | 17.1 µM | 14.4 µM | 50 µM | 18.4 | 7.41 µM | 20.4 µM | 15.3 µM | 14.9 µM | 12.8 µM | 13.6 µM |
| CCS(=O)(=O)c1ccc(OC)c(Nc2ncc(-c3cccc(F)c3)o2)c1 | > 25 µM | > 25 µM | > 25 µM | > 25 | > 25 µM | > 25 µM | > 25 µM | > 25 µM | > 25 µM | > 25 µM | > 25 µM | > 25 µM | 0.513 µM | > 25 | > 20.8 µM | > 25 µM | > 25 µM | > 25 µM | > 25 µM | > 25 µM |
| COc1ccc2c(c1)C(=O)c1c-2n(CCCN(C)C)c(=O)c2cc([N+](=O)[O-])ccc12 | < 0.0447 µM | 1.32 µM | 1.53 µM | 0.0707 | 0.0926 µM | 2.29 µM | 2.59 µM | < 0.012 µM | 5.38 µM | 29.4 µM | < 0.01 µM | < 0.01 µM | < 0.0227 µM | < 0.01 | < 0.01 µM | < 0.01 µM | 0.192 µM | < 0.01 µM | 0.604 µM | 0.227 µM |
| COc1cc(C2NC(=O)C(C#N)=C(Nc3cccc(C)c3)S2)ccc1O (stereo not drawn) | > 100 µM | > 100 µM | > 100 µM | > 100 | > 100 µM | > 100 µM | > 100 µM | > 100 µM | > 100 µM | > 100 µM | > 100 µM | > 100 µM | > 100 µM | > 100 | > 100 µM | > 100 µM | > 100 µM | > 100 µM | > 100 µM | > 100 µM |
| O=C1Cc2cc(CCN3CCNCC3)c(Cl)cc2N1 | > 100 µM | 14.2 µM | > 100 µM | > 100 | > 100 µM | > 100 µM | > 100 µM | > 100 µM | – | > 100 µM | 19.3 µM | 2.77 µM | > 100 µM | 6.03 | 6.89 µM | 12.7 µM | 37 µM | 5.33 µM | – | 6.52 µM |
| COc1ccc(/C=C/c2ccnc3ccccc23)cc1OC | 28.5 µM | 28.6 µM | 48.5 µM | 57.1 | 27.2 µM | 27.8 µM | 31.7 µM | 28 µM | 28.9 µM | 37.6 µM | – | – | – | – | – | – | – | – | – | – |
| CNc1cc(-c2cccc(OC(F)(F)F)c2)nc2ccc(N3CCCC3)cc12 | 3.11 µM and 3.16 µM | 2.97 µM and 3.19 µM and 3.09 µM | 4.58 µM and 3.77 µM | 4.19 | 3.27 µM and 3.28 µM and 2.91 µM | 3.51 µM and 3.77 µM | 3.03 µM and 3.2 µM and 3.06 µM | 3.12 µM and 3.06 µM and 3.01 µM | 3.39 µM and 3.2 µM and 3.24 µM | 3.37 µM and 3.16 µM and 3.34 µM | 1.62 µM and 1.69 µM and 1.72 µM | 1.59 µM and 1.71 µM and 1.63 µM | 2.49 µM and 1.88 µM | 1.71 | 1.8 µM and 1.81 µM and 1.51 µM | 1.94 µM and 1.88 µM and 1.87 µM | 1.64 µM and 1.78 µM and 1.67 µM | 1.74 µM and 1.65 µM and 1.64 µM | 1.94 µM and 1.78 µM and 1.8 µM | 1.89 µM and 1.77 µM and 1.86 µM |
| Fc1ccc(Nc2nc(Nc3ccc(-c4nc5ccccc5[nH]4)cc3)c3cn[nH]c3n2)cc1 | 5.02 µM | 3.23 µM | 7.07 µM | 5.2 | 3.4 µM | 5.4 µM | 3.78 µM | 21.9 µM | 5.29 µM | 4.37 µM | 2.04 µM | 1.71 µM | 2.62 µM | 2.3 | 1.67 µM | 2.11 µM | 1.88 µM | 9.94 µM | 2.29 µM | 2 µM |
| COc1ccc(C(O)c2ccccn2)cc1 (stereo not drawn) | > 100 µM | > 100 µM | > 100 µM | > 100 | > 100 µM | > 100 µM | > 100 µM | > 100 µM | > 100 µM | > 100 µM | – | – | – | – | – | – | – | – | – | – |
| CC1(C)C(=O)/C=C\C(=O)C(C)(C)C(=O)/C=C\C(=O)C(C)(C)C2=CC=C(O2)C(C)(C)C(=O)/C=C\C1=O | 44.7 µM | 29.3 µM | 18.1 µM | 3.17 | 4.73 µM | 43.8 µM | 10 µM | 21.2 µM | 13.4 µM | 16.6 µM | – | – | – | – | – | – | – | – | – | – |
| COc1ccc(-c2[nH]ncc2Nc2cc(OC)c(OC)c(OC)c2)cc1 | > 95.3 µM | 0.395 µM | > 100 µM | 5.04 | > 22.3 µM | > 100 µM | > 100 µM | 23 µM | 96.9 µM | > 100 µM | 3.32 µM | 0.177 µM | 29.1 µM | 1.38 | 1.92 µM | 6.83 µM | 2.57 µM | 1.34 µM | > 32 µM | 34 µM |
| COc1cc(C(=O)n2nc(N)c3c(C)cc(C)nc32)cc(OC)c1OC | > 100 µM | 6.01 µM | > 100 µM | > 100 | > 100 µM | > 100 µM | > 100 µM | > 100 µM | > 100 µM | > 100 µM | 40.8 µM | 0.325 µM | > 100 µM | > 82.1 | 25.3 µM | > 100 µM | > 100 µM | 35.2 µM | > 100 µM | > 100 µM |
